# Experimental data taken from patent US20150307543A1, “POLYMORPH” (ONCOLOGY RESEARCH INTERNATIONAL LIMITED, priority 2012, published 2015).
# Experiments:
# Format in all cases: physicochemical
# [1] = Dissolution analysis in ethanol (% transmission until complete dissolution); conditions: set amount in ethanol with stirring, until % transmission reached 100%, FIG. 6
# Experimental: In order to test the solubility of the polymorphs produced in examples 1 and 2 a set amount of the material was added to ethanol with stirring and the % transmission of the mixture thus monitored until the % transmission reached 100% (which indicated complete dissolution). The 3 materials tested were (1) compound I hydrate, (2) the polymorphic form of compound I of the invention and (3) the polymorphic form of compound I isolated from methanol. The results of this experiment were detailed in FIG. 6. […] In contrast the dissolution profile of the polymorphic form of the invention is much slower taking almost 8 times as long to reach full dissolution.
# [2] = Bulk density and tap density; conditions: for Weight of 5.0 cm^3 of Solid: untapped; for Tapped density: after tapping 50 times; for Bulk density: calculated from weight of 5.0 cm^3 of solid; for Volume after tapped 50 times: starting volume 5.0 cm^3, tapped 50 times
# Experimental: A comparative study of the bulk density and the tapped density of the 3 solid forms of compound one were carried out. The 3 materials tested were (1) compound I hydrate, (2) the polymorphic form of compound I of the invention and (3) the polymorphic form of compound I isolated from methanol. The tests indicated the weight of material in 5.0 cm^3 of solid (g) to calculate the bulk density. This was then tapped 50 times and the tapped density calculated.
# [3] = Dynamic vapour sorption (DVS) at 25° C.; conditions: 0% to 95% RH; for total moisture uptake (percent change in mass based on dry mass): first cycle
# Experimental: A comparative study of the dynamic vapour sorption (DVS) of the 3 solid forms of compound one were carried out. The 3 materials tested were (1) compound I hydrate, (2) the polymorphic form of compound I of the invention and (3) the polymorphic form of compound I isolated from methanol. The samples were analysed on a DVS automated moisture sorption instrument at 25° C. with sample sizes of 25-52 mg for the analysis. The samples were initially dried for 300 minutes under a continuous flow of air to establish the dry mass. The samples were then exposed to the following typical partial pressure profile: 0% to 90% RH in 10% steps and then followed by a 5% step to 95%. The partial pressure was then decreased in a similar manner.
# Typical net percent change in mass (based on dry mass) versus time plots for the first cycle at 25° C. for the three samples are shown in FIGS. 7, 9 and 11. […] The line plotted on the left y-axis, indicates the percentage change in mass referenced to the dry mass (after initial drying stage), m0, as a function of time. The other line, plotted on the right y-axis, traces the requested % partial pressure of water vapour in the DVS as a function of time.
# The isotherm plots display the percent change in mass (referenced from the dry mass, m0) versus the requested relative humidity.
# For all the RH steps, the instrument was run in a dm/dt mode (mass variation over time variation). A fixed dm/dt value of 0.002% min-1 was selected. This criterion permits the DVS software to automatically determine when equilibrium has been reached and complete a relative humidity step. When the rate of change of mass falls below this threshold over a determined period of time, the humidity will proceed to the next programmed level. A maximum stage time of 360 minutes and a minimum stage time of 10 minutes were selected for this experiment.
# [4] = listed as polymorphic form of the invention
smiles,measurement,setting,value
"CC1O[C@@H](OC2C(O)[C@H](O)C(CO)O[C@H]2O[C@H]2CC[C@@]3(C)C(=CC[C@H]4[C@@H]5C[C@@H]6O[C@]7(CC[C@@H](C)CO7)[C@@H](C)[C@@H]6[C@@]5(C)CC[C@@H]43)C2)C(O)C(O)[C@H]1O (stereo partly drawn) [Form 3, diosgenyl α-L-rhamnopyranosyl-(1->2)-β-D-glucopyranoside]",dissolution rate / dissolution profile (in words),[1]; listed as polymorphic form isolated from methanol,very rapid
same,Weight of 5.0 cm^3 of Solid,[2]; listed as 3,0.847 g
same,Tapped density,[2]; listed as 3,0.26 g/mL
same,Bulk density,[2]; listed as 3,0.17 g/mL
same,Volume after tapped 50 times,[2]; listed as 3,3.2 cm^3
same,total moisture uptake (percent change in mass based on dry mass),[3]; listed as polymorph from methanol,about 2.5%
same,percentage of water uptake (in words),[3]; listed as polymorph obtained from methanol,relatively high
"CC1O[C@@H](OC2C(O)[C@H](O)C(CO)O[C@H]2O[C@H]2CC[C@@]3(C)C(=CC[C@H]4[C@@H]5C[C@@H]6O[C@]7(CC[C@@H](C)CO7)[C@@H](C)[C@@H]6[C@@]5(C)CC[C@@H]43)C2)C(O)C(O)[C@H]1O (stereo partly drawn) [Form 1, diosgenyl α-L-rhamnopyranosyl-(1->2)-β-D-glucopyranoside]",dissolution rate / dissolution profile (in words),[1]; listed as hydrate,fastest
same,Weight of 5.0 cm^3 of Solid,[2]; listed as 1,1.430 g
same,Tapped density,[2]; listed as 1,0.37 g/mL
same,Bulk density,[2]; listed as 1,0.29 g/mL
same,Volume after tapped 50 times,[2]; listed as 1,3.9 cm^3
same,total moisture uptake (percent change in mass based on dry mass),[3]; listed as anhydrate,about 5.2%
same,percentage of water uptake (in words),[3]; listed as hydrate,relatively high
"CC1O[C@@H](OC2C(O)[C@H](O)C(CO)O[C@H]2O[C@H]2CC[C@@]3(C)C(=CC[C@H]4[C@@H]5C[C@@H]6O[C@]7(CC[C@@H](C)CO7)[C@@H](C)[C@@H]6[C@@]5(C)CC[C@@H]43)C2)C(O)C(O)[C@H]1O (stereo partly drawn) [Form 2, diosgenyl α-L-rhamnopyranosyl-(1->2)-β-D-glucopyranoside]","time to reach full dissolution, relative to the other forms",[1],~8 times as long
same,dissolution rate / dissolution profile (in words),[1]; [4],much slower
same,Weight of 5.0 cm^3 of Solid,[2]; listed as 2,1.489 g
same,Tapped density,[2]; listed as 2,0.41 g/mL
same,Bulk density,[2]; listed as 2,0.30 g/mL
same,Volume after tapped 50 times,[2]; listed as 2,3.6 cm^3
same,total moisture uptake (percent change in mass based on dry mass),[3]; [4],about 0.55%
same,percentage of water uptake (in words),[3]; [4],low
